Measured values as given in US20080305547A1, “Method for enhanced functional expression of cell receptors” (priority 2007, published 2008).

Columns and labels:
mOR-EG [1] = biological target: T1, mOR-EG (Mus musculus, UniProt Q920P2); assay: cAMP ELISA in transfected HEK293T cells expressing mOR-EG; type: cell-based, murine; conditions: cells transfected with mOR-EG, Ric-8B and Gαolf; 300 μM
T1 construct: expressed in transfected cells; host or cells: HEK293T
T1 sequence (Q920P2 1-313): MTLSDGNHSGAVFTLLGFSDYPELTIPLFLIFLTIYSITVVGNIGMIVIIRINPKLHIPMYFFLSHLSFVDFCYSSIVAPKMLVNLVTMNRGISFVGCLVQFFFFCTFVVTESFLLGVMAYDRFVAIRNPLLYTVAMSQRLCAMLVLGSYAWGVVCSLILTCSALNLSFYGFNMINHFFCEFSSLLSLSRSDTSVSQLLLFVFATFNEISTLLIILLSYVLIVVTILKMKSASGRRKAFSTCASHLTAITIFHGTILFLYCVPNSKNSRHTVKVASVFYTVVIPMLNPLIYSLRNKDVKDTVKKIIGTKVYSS
Experimental: (§1) These experiments were carried out in order to determine if Ric-8B amplifies signaling through odorant receptors (“ORs” hereafter). This was accomplished by using one of the murine ORs, i.e., first cloning murine OR-EG (“mOR-EG” hereafter), from murine genomic DNA via polymerase chain reaction (“PCR”), using standard method. Following this, receptor specificity was confirmed by functional expression of the rhodopsin tagged version of mOR-EG, in HEK293T cells. This is explained infra.
(§2) HEK293T cells were plated, at 0.5×10^5 cells/well, of a 96 well plate. The cells were cultured using standard conditions, for 16-20 hours, after which they were transfected, via the well known, lipofectamine method with mOR-EG cDNA that had been subcloned into the XboI and KpnI restriction sites of plasmid pcDNA 3.1 (−), Gαolf whose full length cDNA had been cloned from murine olfactory epithelium, and subcloned into the XboI site of pcDNA 3.1 (−) expression vector, and Ric-8B, whose full length encoding cDNA had been prepared the same way and then cloned into pcDNA3 vector, with a flag epitope, at the BamHI site of pcDNA3 were used. 100 ngs of each cDNA construct were used for transfection. After 3 hours of transfection, serum containing medium was replaced by serum free medium, and the cells were incubated for 40 hours. Then, additional serum free medium containing 300 μM of eugenol was added, after which cells were incubated for 10 minutes. Activity was determined, by using a commercially available, cAMP ELISA kit.
(§3) In these experiments, mOR-EG odorant specificity was tested, in cells which had also been transfected with Ric-8B and Gαolf Vanillin, nonenedoic acid, acetophenone, (−), limonene, heptanol, 2-heptanol, hexanol, and (+/−) cerveone were tested at high concentrations (300 μM).

mOR-S6 [2] = assay: cAMP ELISA in transfected HEK293T cells expressing mOR-S6; type: cell-based, murine
Experimental: as §2
The same procedures set forth supra for isolating, cloning, and amplifying mOR-EG were used for the coding region of mOR-S6. Rhodopsin tagged mOR-S6 was also used. The same protocols were carried out as are discussed supra, using nonanedoic acid as the agonist.

mOR-S6 [3] = conditions: murine olfactory neurons, single cell RT-PCR; cited from earlier work
rat OR-17 = biological target: T2, rat OR-17 (Rattus norvegicus, UniProt P23270); conditions: cited from earlier work
T2 sequence (P23270 1-327): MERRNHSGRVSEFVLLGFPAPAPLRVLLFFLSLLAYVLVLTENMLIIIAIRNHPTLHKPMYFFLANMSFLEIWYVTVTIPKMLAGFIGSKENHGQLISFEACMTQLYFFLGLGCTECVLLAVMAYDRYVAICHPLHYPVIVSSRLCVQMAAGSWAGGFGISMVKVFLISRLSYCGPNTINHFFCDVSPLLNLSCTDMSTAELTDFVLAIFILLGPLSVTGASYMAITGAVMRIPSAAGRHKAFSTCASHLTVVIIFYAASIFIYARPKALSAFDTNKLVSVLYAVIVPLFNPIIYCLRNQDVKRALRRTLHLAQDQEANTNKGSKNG

mOR-EG [4] = biological target: T3, mOR-EG (Mus musculus, UniProt Q920P2); conditions: previously shown; cited from earlier work
T3 construct: expressed in transfected cells; host or cells: HEK293T
T3 sequence (Q920P2 with tags, fused parts or gaps): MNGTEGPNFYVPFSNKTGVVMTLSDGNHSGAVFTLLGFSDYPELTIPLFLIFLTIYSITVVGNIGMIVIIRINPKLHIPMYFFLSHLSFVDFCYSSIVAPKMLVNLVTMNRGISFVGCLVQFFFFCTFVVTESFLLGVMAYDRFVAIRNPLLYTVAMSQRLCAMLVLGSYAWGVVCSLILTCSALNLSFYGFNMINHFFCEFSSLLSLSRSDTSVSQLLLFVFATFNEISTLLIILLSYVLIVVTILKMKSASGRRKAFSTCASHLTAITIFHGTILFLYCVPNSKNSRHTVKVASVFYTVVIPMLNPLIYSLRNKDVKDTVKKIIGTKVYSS

mOR-EG [5] = biological target: T3, mOR-EG; assay: cAMP ELISA in transfected HEK293T cells expressing mOR-EG; type: cell-based, murine; conditions: HEK293T transfected with rhodopsin tagged mOR-EG, Gαolf (and Ric-8B); 300 μM, 10 minutes
Experimental: as §1, §2, §3

mOR-EG [6] = biological target: T1, mOR-EG; assay: as above; type: cell-based, murine; conditions: HEK293T transfected with untagged mOR-EG and Gαolf; 300 μM, 10 minutes
mOR-17 = biological target: T4, mOR-17 (Mus musculus, UniProt Q9QWU6); assay: cAMP ELISA in transfected HEK293T cells expressing mOR-17; type: cell-based, murine
T4 construct: expressed in transfected cells; host or cells: HEK293T
T4 sequence (Q9QWU6 1-327): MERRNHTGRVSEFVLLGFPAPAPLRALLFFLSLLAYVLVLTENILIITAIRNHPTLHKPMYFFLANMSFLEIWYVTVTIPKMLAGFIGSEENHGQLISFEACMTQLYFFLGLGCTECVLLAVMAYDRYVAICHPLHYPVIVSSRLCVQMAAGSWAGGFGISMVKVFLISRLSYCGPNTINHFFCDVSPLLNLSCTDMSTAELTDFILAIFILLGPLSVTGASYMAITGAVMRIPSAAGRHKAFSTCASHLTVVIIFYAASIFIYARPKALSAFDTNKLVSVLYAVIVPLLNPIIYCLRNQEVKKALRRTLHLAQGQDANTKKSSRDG
Experimental: as §2
To further this work, the same protocols as are described supra were carried out, using untagged mOR-17, Gαolf, Ric-8B, and RTP1.

murine form of OR-17 = biological target: T5, murine form of OR-17 (Mus musculus, UniProt Q9QWU6); conditions: co-expression with Gα/16 in HEK293 cells; cited from earlier work
T5 construct: host or cells: HEK293
T5 sequence (Q9QWU6 1-327): T4 sequence (Q9QWU6 1-327)

OR-17 = biological target: T6, OR-17 (Mus musculus, UniProt Q9QWU6); conditions: GFP tagged mouse olfactory neurons endogenously expressing OR-17; cited from earlier work
T6 construct: mouse olfactory neurons which endogenously express OR-17; host or cells: mouse olfactory neurons
T6 sequence (Q9QWU6 1-327): T4 sequence (Q9QWU6 1-327)

CCCCCCCO [heptanol]
stimulation of cAMP production (odorant specificity) (mOR-EG [1]): Only eugenol stimulated production of cAMP

O=C(O)CCCCCCCC(=O)O [nonanedoic acid]
stimulation of cAMP production (odorant specificity) (mOR-EG [1]): Only eugenol stimulated production of cAMP | increase in cAMP production (mOR-S6 [2]; all four elements: rhodopsin tagged mOR-S6, Ric-8B, RTP1 and Gαolf): significant increase | increase in cAMP production (mOR-S6 [2]; cells co-transfected with mOR-S6, Gαolf and Ric-8B): no significant increase | increase in cAMP production (mOR-S6 [2]; cells co-transfected with mOR-S6 and Gαolf): no significant increase | increase in cAMP production (mOR-S6 [2]; mOR-S6, Gαolf and RTP1 (RTP1 replaced Ric-8B)): slight, insignificant increase | increase in cAMP production (mOR-S6 [2]; non-tagged mOR-S6 in parallel expression systems (Ric-8B, RTP1, Gαolf)): not observed | response of the OR to the odorant (mOR-S6 [3]): responded

CC(=O)c1ccccc1 [acetophenone]
stimulation of cAMP production (odorant specificity) (mOR-EG [1]): Only eugenol stimulated production of cAMP

CCCCCC(C)O (stereo not drawn) [2-heptanol]
stimulation of cAMP production (odorant specificity) (mOR-EG [1]): Only eugenol stimulated production of cAMP

C=C(C)C1CC=C(C)C(=O)C1 (racemic) [(+/−) cerveone, cerveone]
stimulation of cAMP production (odorant specificity) (mOR-EG [1]): Only eugenol stimulated production of cAMP

CCCCCCCCO [octanol]
recognition of odorant by receptor (rat OR-17): recognizes

COc1cc(C=O)ccc1O [Vanillin]
stimulation of cAMP production (odorant specificity) (mOR-EG [1]): Only eugenol stimulated production of cAMP | stimulation of rhodopsin tagged mOR-EG (mOR-EG [4]): has been shown to stimulate

C=CCc1ccc(O)c(OC)c1 [eugenol]
increase in cAMP levels as compared to unstimulated cells (factor) (mOR-EG [5]): ~3 | stimulation of cAMP production (odorant specificity) (mOR-EG [1]): stimulated production of cAMP | response to the agonist (cAMP) (mOR-EG [6]): did not respond

C=C(C)[C@H]1CC=C(C)CC1 [limonene]
stimulation of cAMP production (odorant specificity) (mOR-EG [1]): Only eugenol stimulated production of cAMP

CCCCCCO [hexanol]
stimulation of cAMP production (odorant specificity) (mOR-EG [1]): Only eugenol stimulated production of cAMP

CCCCCCC=O [heptanal]
response of transfected cells to odorant (cAMP) (mOR-17; all four elements: untagged mOR-17, Gαolf, Ric-8B and RTP1): responded to heptanal specifically | response of transfected cells to odorant (cAMP) (mOR-17; untagged mOR-17, Gαolf and RTP1 (RTP1 replaced Ric-8B)): did not | response of transfected cells to odorant (cAMP) (mOR-17; untagged mOR-17, Gαolf and Ric-8B): responded | recognition of odorant by receptor (murine form of OR-17): preferentially recognizes | recognition of odorant by receptor (OR-17): recognized
